Among the test systems are A498 renal; CCRF-CEM leukemia; DU-145 prostate; HCT-15 colon; K-562 leukemia; LOX IMVI melanoma; M14 melanoma; MCF7 breast; NCI-H23 lung; NCI/ADR-RES ovarian; SK-MEL-2 melanoma; SK-OV-3 ovarian; SW-620 colon; U251 CNS; UACC-257 melanoma; UACC-62 melanoma.
Assay in all cases: NCI tumour cell line growth inhibition, 48 h

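Values below derive from 48-hour exposures of cells grown in 96-well plates, with endpoints linearly interpolated between the two concentrations bracketing the appropriate inhibition level. The concentration for full growth arrest is given as TGI.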 Bounds are passed on as bounds.

For `CCCCn1c2c(n(CCCC)c1=[Se])-c1c(n(CCCC)c(=[Se])n1CCCC)S[Se][Se]S2`, the TGI with A498 renal is above 100 µM; in the assay on CCRF-CEM leukemia, 55.6 µM; in the assay on DU-145 prostate, 63.4 µM; in the assay with HCT-15 colon it was 27.9 µM; in the assay on K-562 leukemia, above 66.9 µM; in the assay with LOX IMVI melanoma, 30.1 µM. Further, the TGI in the assay on M14 melanoma is above 59.9 µM; in the assay on MCF7 breast it was above 69 µM; with NCI-H23 lung it was 70.4 µM; in the assay on NCI/ADR-RES ovarian, 39.5 µM; in the assay with SK-MEL-2 melanoma, 45.9 µM; in the assay with SK-OV-3 ovarian it was 58 µM. For the same compound, the TGI with SW-620 colon is 19.6 µM; in the assay with U251 CNS, 32.2 µM; with UACC-257 melanoma, above 100 µM; in the assay on UACC-62 melanoma, 40.7 µM.
Regarding `O=C(N1CCN(c2ccccc2)CC1)N(C(=O)C1(c2ccc(Cl)cc2)CCCC1)S(=O)(=O)c1ccccc1`, the TGI with A498 renal was 0.429 µM; in the assay on CCRF-CEM leukemia it was above 100 µM; in the assay with DU-145 prostate, above 100 µM; with HCT-15 colon, 80.1 µM; in the assay with K-562 leukemia, above 100 µM; in the assay with LOX IMVI melanoma, 37.9 µM. The TGI in the assay with M14 melanoma worked out at 47.3 µM; in the assay on MCF7 breast, 74.9 µM; with NCI-H23 lung it was 69.1 µM; in the assay on NCI/ADR-RES ovarian, 70.8 µM; with SK-MEL-2 melanoma, 38.9 µM; with SK-OV-3 ovarian, 82.9 µM. The TGI with SW-620 colon was above 100 µM; in the assay with U251 CNS, 62.4 µM; in the assay with UACC-257 melanoma, 88.1 µM; with UACC-62 melanoma, 51.7 µM.
Consider `COc1cc(C2S/C(=C/c3ccccc3)C(=O)N2c2ccccn2)cc(OC)c1OC` (stereo unspecified), for which the TGI was 33.4 µM in the assay on A498 renal; above 100 µM in the assay with CCRF-CEM leukemia; 31.9 µM in the assay with DU-145 prostate; 36.4 µM with HCT-15 colon; above 100 µM in the assay on K-562 leukemia; 26.9 µM with LOX IMVI melanoma. The TGI in the assay with M14 melanoma is 31.8 µM; in the assay on MCF7 breast it was above 57.9 µM; in the assay with NCI-H23 lung it was 34 µM; in the assay with NCI/ADR-RES ovarian, 54 µM; with SK-MEL-2 melanoma, above 71.3 µM; with SK-OV-3 ovarian, above 90.6 µM. Also, the TGI was 64.3 µM in the assay on SW-620 colon, 28.1 µM in the assay on U251 CNS, above 100 µM in the assay with UACC-257 melanoma and 29.8 µM in the assay on UACC-62 melanoma.
Consider `CCCNC(=O)c1cc(NC(=O)c2cc(NC(=O)CCS(=O)(=O)OC)cn2C)cn1C`, for which the TGI is above 100 µM with A498 renal; 3.67 µM with CCRF-CEM leukemia; 72.2 µM in the assay with DU-145 prostate; above 100 µM in the assay on HCT-15 colon; above 100 µM with K-562 leukemia; 43.6 µM in the assay on LOX IMVI melanoma. The TGI in the assay on M14 melanoma is above 76.7 µM; in the assay with MCF7 breast it was above 100 µM; in the assay on NCI-H23 lung, 40.7 µM; in the assay on NCI/ADR-RES ovarian it was above 100 µM; in the assay with SK-MEL-2 melanoma it was 53.8 µM; in the assay with SK-OV-3 ovarian, 22.8 µM. In addition, the TGI in the assay on SW-620 colon is above 100 µM; in the assay with U251 CNS, above 100 µM; with UACC-257 melanoma, 53.5 µM; in the assay on UACC-62 melanoma it was 48.7 µM.
For the compound `NNC(=O)CSc1nnc(CCCCCCCCc2nnc(SCC(=O)NN)o2)o1`, the TGI in the assay on A498 renal, in the assay on CCRF-CEM leukemia, with DU-145 prostate, with HCT-15 colon, in the assay with K-562 leukemia and in the assay with LOX IMVI melanoma was above 100 µM in each case. For the same compound, the TGI in the assay with M14 melanoma, in the assay on MCF7 breast, in the assay with NCI-H23 lung, in the assay on NCI/ADR-RES ovarian, with SK-MEL-2 melanoma and in the assay with SK-OV-3 ovarian was above 100 µM in each case. In addition, the TGI in the assay with SW-620 colon, with U251 CNS, with UACC-257 melanoma and in the assay on UACC-62 melanoma was above 100 µM each time.
`O=C(CSCC(=O)N/N=C/c1ccncc1)N/N=C/c1ccncc1`: the TGI in the assay on A498 renal, with CCRF-CEM leukemia, with DU-145 prostate, with HCT-15 colon, with K-562 leukemia and with LOX IMVI melanoma was above 100 µM in each case. Also, the TGI in the assay with M14 melanoma, with MCF7 breast, in the assay on NCI-H23 lung, with NCI/ADR-RES ovarian, in the assay with SK-MEL-2 melanoma and with SK-OV-3 ovarian was above 100 µM in each case. The TGI in the assay on SW-620 colon, in the assay with U251 CNS, in the assay with UACC-257 melanoma and in the assay with UACC-62 melanoma was above 100 µM throughout.

Source of the values: PubChem BioAssay (NCI).
